Data from patent publication US20260021064A1, “ACETAMINOPHEN AND NAPROXEN FOR TREATING PAIN” (Kenvue Brands LLC, priority 2022, published 2026).
Where two headings read alike, the source gives them in different places.

What was measured:
[1] = system: pain after surgical extraction of four third molars; conditions: for PID Score, Least Squares Mean (Standard Error): PI-NRS 0-10, difference from baseline
Experimental: (§1) 1. Time-Weighted Sum of Pain Intensity Difference Score From Baseline (0 Hour) to 6 Hours (SPID 0-6) [Time Frame: Baseline (0 hour) up to 6 hours post-dose]. Time-weighted sum of the pain intensity difference (SPID) score was measured using a Pain Intensity-Numerical Rating Scale (PI-NRS) ranging from 0-10 (0=no pain, 10=very severe pain). The possible range of SPID for 0-6 hours was from −60 to 60. A higher value of SPID indicated greater pain relief. PID was the difference between baseline pain intensity and pain intensity at assessment. Time-weighted sum of the pain intensity difference scores were derived by first multiplying each PID score by the time from the previous time point and adding these time-weighted PID scores together over the intervals from 0 to 6 hours.
2. Time-weighted Sum of Pain Intensity Difference Score From Baseline (0 Hour) to 12 Hours (SPID 0-12) [Time Frame: Baseline (0 hour) up to 12 hours post-dose]. Time-weighted sum of the pain intensity difference score was measured using a PI-NRS ranging from 0-10 (0=no pain, 10=very severe pain). The possible range of SPID for 0-12 hours was from-120 to 120. A higher value of SPID indicated greater pain relief. PID was the difference between baseline pain intensity and pain intensity at assessment (12 hours). Time-weighted sum of the pain intensity difference scores were derived by first multiplying each PID score by the time from the previous time point and adding these time-weighted PID scores together over the intervals from 0 to 12 hours.
4. Time-Weighted Sum of Pain Intensity Difference Score From Baseline (0 Hour) to 8 Hours (SPID 0-8) [Time Frame: Baseline (0 hour) up to 8 hours post-dose]. Time-weighted sum of the pain intensity difference score was measured using a PI-NRS ranging from 0-10 (0=no pain, 10=very severe pain). The possible range of SPID for 0-8 hours was from −80 to 80. A higher value of SPID indicated greater pain relief. PID was the difference between baseline pain intensity and pain intensity at assessment (8 hours). Time-weighted sum of the pain intensity difference scores were derived by first multiplying each PID score by the time from the previous time point and adding these time-weighted PID scores together over the intervals from 0 to 8 hours.
6. Pain Intensity Difference (PID) Scores at Individual Time Points [Time Frame: 0.25 hours, 0.5 hours, 0.75 hours, 1 hours, 1.25 hours, 1.5 hours, 2 hours, 3 hours, 4 hours, 5 hours, 6 hours, 7 hours, 8 hours, 9 hours, 10 hours, 11 hours, and 12 hours]. Pain Intensity was self-reported over 12 hours, using a pain rating of 0-10 on the PI-NRS, with score ranged from 0-10 (0=no pain; 10 =worst imaginable pain). Pain intensity differences were calculated with respect to baseline at each time point after study drug administration.
as §1, with “Time-Weighted” for “1. Time-Weighted”, “0-6):” for “0-6) [Time Frame: Baseline (0 hour) up to 6 hours post-dose].”
Time-weighted Sum of Pain Intensity Difference Score From Baseline (0 Hour) to 12 Hours (SPID 0-12): Time-weighted sum of the pain intensity difference score was measured using a PI-NRS ranging from 0-10 (0=no pain, 10=very severe pain). The possible range of SPID for 0-12 hours was from-120 to 120. A higher value of SPID indicated greater pain relief. PID was the difference between baseline pain intensity and pain intensity at assessment (12 hours).

[2] = system: pain after surgical extraction of four third molars; conditions: for PAR Score, Least Squares Mean (Standard Error): PR-NRS 0-10
Experimental: 1. Time-Weighted Sum of Total Pain Relief Score From Baseline (0 Hour) to 6 Hours (TOTPAR 0-6) [Time Frame: Baseline (0 hour) up to 6 hours post-dose]. Time-weighted total pain relief (TOTPAR) was measured using a Pain Relief Numerical Rating Scale (PR-NRS) ranging from 0-10 (0=no relief, 10=complete relief). Total pain relief scores (TOTPARs) were calculated by multiplying the pain relief score at each postdose time point by the duration (in hours) since the preceding time point and then summing these values. The minimum value was 0, and the maximum value was 60. Higher scores was indicative of more pain relief.
2. Time-Weighted Sum of Total Pain Relief Score From Baseline (0 Hour) to 8 Hours (TOTPAR 0-8) [Time Frame: Baseline (0 hour) up to 8 hours post-dose]. TOTPAR was measured using a PR-NRS ranging from 0-10 (0=no relief, 10=complete relief). Total pain relief scores (TOTPARs) were calculated by multiplying the pain relief score at each postdose time point by the duration (in hours) since the preceding time point and then summing these values. The minimum value was 0, and the maximum value was 80. Higher scores was indicative of more pain relief.
3. Time-Weighted Sum of Total Pain Relief Score From Baseline (0 Hour) to 12 Hours (TOTPAR 0-12) [Time Frame: Baseline (0 hour) up to 12 hours post-dose]. TOTPAR was measured using a PR-NRS ranging from 0-10 (0=no relief, 10=complete relief). Total pain relief scores (TOTPARs) were calculated by multiplying the pain relief score at each postdose time point by the duration (in hours) since the preceding time point and then summing these values. The minimum value was 0, and the maximum value was 120. Higher scores was indicative of more pain relief.
5. Pain Relief (PAR) Scores at Individual Timepoints [Time Frame: 0.25 hours, 0.5 hours, 0.75 hours, 1 hours, 1.25 hours, 1.5 hours, 2 hours, 3 hours, 4 hours, 5 hours, 6 hours, 7 hours, 8 hours, 9 hours, 10 hours, 11 hours, and 12 hours]. Participants answered a question at individual time points: “how much relief do you have from your starting pain?” on a 11-point PR-NRS. Scale ranged from 0=no relief to 10=complete relief. Higher score indicated improvement in pain.
Time-Weighted Sum of Total Pain Relief Score From Baseline (0 Hour) to 6 Hours (TOTPAR 0-6): Time-weighted total pain relief (TOTPAR) was measured using a Pain Relief Numerical Rating Scale (PR-NRS) ranging from 0-10 (0=no relief, 10=complete relief). Total pain relief scores (TOTPARs) were calculated by multiplying the pain relief score at each postdose time point by the duration (in hours) since the preceding time point and then summing these values. The minimum value was 0, and the maximum value was 60. Higher scores was indicative of more pain relief.
Time-Weighted Sum of Total Pain Relief Score From baseline (0 Hour) to 8 Hours (TOTPAR 0-8): TOTPAR was measured using a PR-NRS ranging from 0-10 (0=no relief, 10=complete relief). Total pain relief scores (TOTPARs) were calculated by multiplying the pain relief score at each postdose time point by the duration (in hours) since the preceding time point and then summing these values. The minimum value was 0, and the maximum value was 80. Higher scores was indicative of more pain relief.
Time-Weighted Sum of Total Pain Relief Score From Baseline (0 Hour to 12 Hours (TOTPAR 0-12): TOTPAR was measured using a PR-NRS ranging from 0-10 (0=no relief, 10=complete relief). Total pain relief scores (TOTPARs) were calculated by multiplying the pain relief score at each postdose time point by the duration (in hours) since the preceding time point and then summing these values. The minimum value was 0, and the maximum value was 120. Higher scores was indicative of more pain relief.
Pain Relief (PAR) Scores at Timepoints: Participants answered a question at individual time points: “how much relief do you have from your starting pain?” on a 11-point PR-NRS. Scale ranged from 0-no relief to 10-complete relief.

[3] = system: pain after surgical extraction of four third molars; conditions: single oral dose; up to 12 hours; scale poor (0) to excellent (4)
Experimental: Participant's Global Evaluation of Study Medication OR Overall Impression of Study Medication According to Participant's Global Evaluation [Time Frame: Up to 12 hours]. Participants were asked to rate their overall impression of the study medication using the following scale: poor (0), fair (1), good (2), very good (3), and excellent (4) where higher score represented better outcome.
Participant's Global Evaluation of Study Medication OR Overall Impression of Study Medication According to Participant's Global Evaluation: Participants were asked to rate their overall impression of the study medication using the following scale: poor (0), fair (1), good (2), very good (3), and excellent (4) where higher score represented better outcome

COc1ccc2cc([C@H](C)C(=O)O)ccc2c1 [Arm 2: Naproxen Sodium 440 mg, naproxen sodium]
PID Score, Least Squares Mean (Standard Error) ([1]; 0.25 Hours post-dose): 0.58 (0.15)
PID Score, Least Squares Mean (Standard Error) ([1]; 0.5 Hours post-dose): 1.82 (0.24)
PID Score, Least Squares Mean (Standard Error) ([1]; 0.75 Hours post-dose): 3.15 (0.27)
PID Score, Least Squares Mean (Standard Error) ([1]; 1 Hours post-dose): 3.97 (0.28)
PID Score, Least Squares Mean (Standard Error) ([1]; 1.25 Hours post-dose): 4.50 (0.28)
PID Score, Least Squares Mean (Standard Error) ([1]; 1.5 Hours post-dose): 4.72 (0.28)
PID Score, Least Squares Mean (Standard Error) ([1]; 2 Hours post-dose): 4.87 (0.28)
PID Score, Least Squares Mean (Standard Error) ([1]; 3 Hours post-dose): 4.75 (0.30)
PID Score, Least Squares Mean (Standard Error) ([1]; 4 Hours post-dose): 4.63 (0.31)
PID Score, Least Squares Mean (Standard Error) ([1]; 5 Hours post-dose): 4.59 (0.32)
PID Score, Least Squares Mean (Standard Error) ([1]; 6 Hours post-dose): 4.50 (0.32)
PID Score, Least Squares Mean (Standard Error) ([1]; 7 Hours post-dose): 4.36 (0.32)
PID Score, Least Squares Mean (Standard Error) ([1]; 9 Hours post-dose): 4.04 (0.33)
PID Score, Least Squares Mean (Standard Error) ([1]; 10 Hours post-dose): 4.01 (0.35)
PID Score, Least Squares Mean (Standard Error) ([1]; 11 Hours post-dose): 3.99 (0.35)
PID Score, Least Squares Mean (Standard Error) ([1]; 12 Hours post-dose): 3.91 (0.36)
Time-Weighted Sum of Pain Intensity Difference Score From Baseline (0 Hour) to 6 Hours (SPID 0-6), Least Squares Mean (Standard Error) ([1]; single oral dose, possible range -60 to 60, higher = greater pain relief): 25.59 (1.562)
Time-Weighted Sum of Pain Intensity Difference Score From Baseline (0 Hour) to 8 Hours (SPID 0-8), Least Squares Mean (Standard Error) ([1]; single oral dose, possible range -80 to 80, higher = greater pain relief): 34.11
Time-weighted Sum of Pain Intensity Difference Score From Baseline (0 Hour) to 12 Hours (SPID 0-12), Least Squares Mean (Standard Error) ([1]; single oral dose, possible range -120 to 120, higher = greater pain relief): 50.07 (3.341)
PAR Score, Least Squares Mean (Standard Error) ([2]; 0.25 Hours post-dose): 0.80 (0.18)
PAR Score, Least Squares Mean (Standard Error) ([2]; 0.5 Hours post-dose): 2.27 (0.31)
PAR Score, Least Squares Mean (Standard Error) ([2]; 0.75 Hours post-dose): 4.11 (0.35)
PAR Score, Least Squares Mean (Standard Error) ([2]; 1 Hours post-dose): 5.29 (0.35)
PAR Score, Least Squares Mean (Standard Error) ([2]; 1.25 Hours post-dose): 5.99 (0.35)
PAR Score, Least Squares Mean (Standard Error) ([2]; 1.5 Hours post-dose): 6.36 (0.34)
PAR Score, Least Squares Mean (Standard Error) ([2]; 2 Hours post-dose): 6.62 (0.34)
PAR Score, Least Squares Mean (Standard Error) ([2]; 3 Hours post-dose): 6.52 (0.35)
PAR Score, Least Squares Mean (Standard Error) ([2]; 4 Hours post-dose): 1.46 (0.36)
PAR Score, Least Squares Mean (Standard Error) ([2]; 5 Hours post-dose): 6.45 (0.37)
PAR Score, Least Squares Mean (Standard Error) ([2]; 6 Hours post-dose): 6.26 (0.38)
PAR Score, Least Squares Mean (Standard Error) ([2]; 8 Hours post-dose): 5.95 (0.39)
PAR Score, Least Squares Mean (Standard Error) ([2]; 9 Hours post-dose): 5.73 (0.40)
PAR Score, Least Squares Mean (Standard Error) ([2]; 10 Hours post-dose): 5.71 (0.42)
PAR Score, Least Squares Mean (Standard Error) ([2]; 11 Hours post-dose): 5.71 (0.43)
PAR Score, Least Squares Mean (Standard Error) ([2]; 12 Hours post-dose): 5.62 (0.44)
Time-Weighted Sum of Total Pain Relief Score From Baseline (0 Hour) to 6 Hours (TOTPAR 0-6), Least Squares Mean (Standard Error) ([2]; single oral dose, range 0 to 60, higher = more pain relief): 35.20 (1.848)
Time-Weighted Sum of Total Pain Relief Score From baseline (0 Hour) to 8 Hours (TOTPAR 0-8), Least Squares Mean (Standard Error) ([2]; single oral dose, range 0 to 80, higher = more pain relief): 47.19
Time-Weighted Sum of Total Pain Relief Score From Baseline (0 Hour to 12 Hours (TOTPAR 0-12), Least Squares Mean (Standard Error)) ([2]; single oral dose, range 0 to 120, higher = more pain relief): 69.96
Participant's Global Evaluation of Study Medication, Least Squares Mean (Standard Error) [3]: 2.7 (0.13)
